Reference: PubChem BioAssay AID256 (DTP/NCI, 2004)
“And” between values parts separate entries of the source, which are not always exact repeats. Identical values can stand only once. Inconclusive results and toxic doses are left out. The calls were made as follows: active = survival T/C of 150% or more; inactive = T/C below 125% in these data.

Tested on: CD2F1 mice, L1210 leukemia ip, survival T/C
Test: NCI In Vivo Anticancer Drug Screen. Data for tumor model L1210 Leukemia (intraperitoneal) in CD2F1 (CDF1) mice
Conditions: higher = longer survival
How it was run: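 Implant tumor; dose compound or vehicle; measure endpoint in both groups; report treated divided by control.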

[1] = endpoint: mean survival time, dose: 100.0 mg/kg/injection, schedule: Q04DX003 (ip), vehicle: Klucel (hydroxypropylcellulose) (HPC)
[2] = endpoint: mean survival time, dose: 25.0 mg/kg/injection, schedule: Q04DX003 (ip), vehicle: saline with Tween-80
[3] = endpoint: mean survival time, dose: 50.0 mg/kg/injection, schedule: Q04DX003 (ip), vehicle: saline with Tween-80
[4] = endpoint: mean survival time, dose: 100.0 mg/kg/injection, schedule: Q04DX003 (ip), vehicle: saline with Tween-80
[5] = endpoint: mean survival time, dose: 200.0 mg/kg/injection, schedule: Q04DX003 (ip), vehicle: saline with Tween-80
[6] = endpoint: mean survival time, dose: 400.0 mg/kg/injection, schedule: Q04DX003 (ip), vehicle: saline with Tween-80
[7] = endpoint: mean survival time, dose: 100.0 mg/kg/injection, schedule: Q01DX009 (ip), vehicle: saline
[8] = endpoint: mean survival time, dose: 100.0 mg/kg/injection, schedule: Q04DX003 (ip), vehicle: saline
[9] = endpoint: mean survival time, dose: 200.0 mg/kg/injection, schedule: Q01DX009 (ip), vehicle: saline
[10] = endpoint: mean survival time, dose: 200.0 mg/kg/injection, schedule: Q04DX003 (ip), vehicle: saline
[11] = endpoint: mean survival time, dose: 400.0 mg/kg/injection, schedule: Q04DX003 (ip), vehicle: saline

Measured: T/C

O=C(O)c1ccc(Nc2c3ccccc3nc3ccccc23)cc1
inactive: endpoint: mean survival time, dose: 75.0 mg/kg/injection, schedule: Q01DX001 (ip), vehicle: Klucel (hydroxypropylcellulose) (HPC) 121 % of control | endpoint: mean survival time, dose: 88.0 mg/kg/injection, schedule: Q01DX001 (ip), vehicle: Klucel (hydroxypropylcellulose) (HPC) 119 % of control | endpoint: mean survival time, dose: 300.0 mg/kg/injection, schedule: Q04DX003 (ip), vehicle: Klucel (hydroxypropylcellulose) (HPC) 118 % of control
active: endpoint: mean survival time, dose: 44.0 mg/kg/injection, schedule: Q01DX009 (ip), vehicle: Klucel (hydroxypropylcellulose) (HPC) 170 % of control and 179 % of control | endpoint: mean survival time, dose: 66.0 mg/kg/injection, schedule: Q01DX009 (ip), vehicle: Klucel (hydroxypropylcellulose) (HPC) 207 % of control and 225 % of control | endpoint: mean survival time, dose: 75.0 mg/kg/injection, schedule: Q04DX003 (ip), vehicle: Klucel (hydroxypropylcellulose) (HPC) 154 % of control | endpoint: mean survival time, dose: 100.0 mg/kg/injection, schedule: Q01DX009 (ip), vehicle: Klucel (hydroxypropylcellulose) (HPC) 167 % of control and 184 % of control | [1] 162 % of control | endpoint: mean survival time, dose: 133.0 mg/kg/injection, schedule: Q04DX002 (ip), vehicle: Klucel (hydroxypropylcellulose) (HPC) 167 % of control | endpoint: mean survival time, dose: 150.0 mg/kg/injection, schedule: Q04DX002 (ip), vehicle: Klucel (hydroxypropylcellulose) (HPC) 166 % of control | endpoint: mean survival time, dose: 150.0 mg/kg/injection, schedule: Q04DX003 (ip), vehicle: Klucel (hydroxypropylcellulose) (HPC) 172 % of control and 223 % of control | endpoint: mean survival time, dose: 200.0 mg/kg/injection, schedule: Q04DX002 (ip), vehicle: Klucel (hydroxypropylcellulose) (HPC) 223 % of control | endpoint: mean survival time, dose: 225.0 mg/kg/injection, schedule: Q04DX003 (ip), vehicle: Klucel (hydroxypropylcellulose) (HPC) 301 % of control | endpoint: mean survival time, dose: 300.0 mg/kg/injection, schedule: Q01DX001 (ip), vehicle: Klucel (hydroxypropylcellulose) (HPC) 171 % of control and 201 % of control | endpoint: mean survival time, dose: 300.0 mg/kg/injection, schedule: Q04DX002 (ip), vehicle: Klucel (hydroxypropylcellulose) (HPC) 212 % of control and 293 % of control | endpoint: mean survival time, dose: 450.0 mg/kg/injection, schedule: Q04DX002 (ip), vehicle: Klucel (hydroxypropylcellulose) (HPC) 225 % of control

O=C1NC(CN2CCCCC2)C(=O)NC1CN1CCCCC1 (stereo unspecified)
inactive: endpoint: mean survival time, dose: 3.13 mg/kg/injection, schedule: Q01DX009 (ip), vehicle: water 98 % of control | endpoint: mean survival time, dose: 6.25 mg/kg/injection, schedule: Q01DX009 (ip), vehicle: water 98 % of control | endpoint: mean survival time, dose: 12.5 mg/kg/injection, schedule: Q01DX009 (ip), vehicle: water 105 % of control | endpoint: mean survival time, dose: 25.0 mg/kg/injection, schedule: Q01DX009 (ip), vehicle: water 103 % of control | endpoint: mean survival time, dose: 50.0 mg/kg/injection, schedule: Q01DX009 (ip), vehicle: water 98 % of control | endpoint: mean survival time, dose: 100.0 mg/kg/injection, schedule: Q01DX009 (ip), vehicle: water 105 % of control

CCc1nc2c(=O)n(C3OC(CO)C(O)C3O)cnc2o1 (stereo unspecified)
inactive: endpoint: mean survival time, dose: 100.0 mg/kg/injection, schedule: Q01DX005 (ip), vehicle: saline 100 % of control | endpoint: mean survival time, dose: 200.0 mg/kg/injection, schedule: Q01DX005 (ip), vehicle: saline 101 % of control

O=P1(N(CCCl)CCCl)OC(c2ccccc2)=CCN1c1ccccc1 (stereo unspecified)
inactive: endpoint: mean survival time, dose: 31.25 mg/kg/injection, schedule: Q01DX001 (ip), vehicle: saline 103 % of control | endpoint: mean survival time, dose: 62.5 mg/kg/injection, schedule: Q01DX001 (ip), vehicle: saline 97 % of control | endpoint: mean survival time, dose: 125.0 mg/kg/injection, schedule: Q01DX001 (ip), vehicle: saline 100 % of control | endpoint: mean survival time, dose: 250.0 mg/kg/injection, schedule: Q01DX001 (ip), vehicle: saline 100 % of control | endpoint: mean survival time, dose: 500.0 mg/kg/injection, schedule: Q01DX001 (ip), vehicle: saline 103 % of control

CC(C)(C)OC(=O)NC(CCCCNC(=O)C(F)(F)F)C(=O)ON1C(=O)CCC1=O (stereo unspecified)
inactive: [2] 102 % of control | [3] 102 % of control | [4] 89 % of control and 101 % of control

CC(=O)c1ccc(N=C2C=CC(=O)O2)cc1
inactive: [4] 102 % of control | [5] 96 % of control | [6] 96 % of control

NOCc1cc(Cl)sc1Cl
inactive: [4] 112 % of control | [5] 121 % of control

CCCCCCCCNC(=O)CC
inactive: endpoint: mean survival time, dose: 100.0 mg/kg/injection, schedule: Q01DX001 (ip), vehicle: saline 103 % of control | [7] 94 % of control | [8] 97 % of control | endpoint: mean survival time, dose: 200.0 mg/kg/injection, schedule: Q01DX001 (ip), vehicle: saline 100 % of control | [9] 94 % of control | [10] 101 % of control | endpoint: mean survival time, dose: 400.0 mg/kg/injection, schedule: Q01DX001 (ip), vehicle: saline 100 % of control | endpoint: mean survival time, dose: 400.0 mg/kg/injection, schedule: Q01DX009 (ip), vehicle: saline 92 % of control | [11] 98 % of control

O=C(O)c1ccc(OCCOc2ccccc2)cc1
inactive: endpoint: mean survival time, dose: 66.0 mg/kg/injection, schedule: Q04DX003 (ip), vehicle: saline sonified 101 % of control | endpoint: mean survival time, dose: 100.0 mg/kg/injection, schedule: Q04DX003 (ip), vehicle: saline sonified 96 % of control | endpoint: mean survival time, dose: 150.0 mg/kg/injection, schedule: Q04DX003 (ip), vehicle: saline sonified 107 % of control

CNC(=S)NC1CCCCC1
inactive: [4] 97 % of control | [5] 100 % of control | [6] 89 % of control

O=c1[nH]c(=O)n(C2CC(O)C(CO)O2)cc1I (stereo unspecified)
inactive: endpoint: mean survival time, dose: 50.0 mg/kg/injection, schedule: Q01DX007 (ip), vehicle: saline 110 % of control | endpoint: mean survival time, dose: 50.0 mg/kg/injection, schedule: Q01DX009 (ip), vehicle: saline 106 % of control | endpoint: mean survival time, dose: 50.0 mg/kg/injection, schedule: Q03DX003 (ip), vehicle: saline 104 % of control | endpoint: mean survival time, dose: 50.0 mg/kg/injection, schedule: Q04DX003 (ip), vehicle: saline 101 % of control | endpoint: mean survival time, dose: 100.0 mg/kg/injection, schedule: Q01DX007 (ip), vehicle: saline 117 % of control | [7] 108 % of control | endpoint: mean survival time, dose: 100.0 mg/kg/injection, schedule: Q03DX003 (ip), vehicle: saline 107 % of control | [8] 106 % of control | endpoint: mean survival time, dose: 200.0 mg/kg/injection, schedule: Q01DX007 (ip), vehicle: saline 108 % of control | [9] 111 % of control | endpoint: mean survival time, dose: 200.0 mg/kg/injection, schedule: Q03DX003 (ip), vehicle: saline 115 % of control | [10] 106 % of control | endpoint: mean survival time, dose: 500.0 mg/kg/injection, schedule: Q01DX009 (ip), vehicle: saline 107 % of control | endpoint: mean survival time, dose: 1000.0 mg/kg/injection, schedule: Q01DX009 (ip), vehicle: saline 103 % of control

CCc1ccc(C(=O)O)cc1S(=O)(=O)Cl
inactive: endpoint: mean survival time, dose: 12.5 mg/kg/injection, schedule: Q01DX009 (ip), vehicle: saline with Tween-80 101 % of control | endpoint: mean survival time, dose: 12.5 mg/kg/injection, schedule: Q04DX003 (ip), vehicle: saline with Tween-80 104 % of control | endpoint: mean survival time, dose: 25.0 mg/kg/injection, schedule: Q01DX009 (ip), vehicle: saline with Tween-80 97 % of control | [2] 101 % of control | endpoint: mean survival time, dose: 50.0 mg/kg/injection, schedule: Q01DX009 (ip), vehicle: saline with Tween-80 95 % of control | [3] 103 % of control | [4] 97 % of control

O=C(OCC#CC#CCOC(=O)c1cccc2ccccc12)c1cccc2ccccc12
inactive: [1] 100 % of control | endpoint: mean survival time, dose: 200.0 mg/kg/injection, schedule: Q04DX003 (ip), vehicle: Klucel (hydroxypropylcellulose) (HPC) 102 % of control | endpoint: mean survival time, dose: 400.0 mg/kg/injection, schedule: Q04DX003 (ip), vehicle: Klucel (hydroxypropylcellulose) (HPC) 96 % of control

COc1ccc(C(C)c2cc3c(cc2OC)OCO3)cc1 (stereo unspecified)
inactive: endpoint: median survival time, dose: 25.0 mg/kg/injection, schedule: Q01DX009 (ip), vehicle: saline with Tween-80 101 % of control | endpoint: median survival time, dose: 50.0 mg/kg/injection, schedule: Q01DX009 (ip), vehicle: saline with Tween-80 107 % of control | endpoint: median survival time, dose: 100.0 mg/kg/injection, schedule: Q01DX009 (ip), vehicle: saline with Tween-80 113 % of control | endpoint: median survival time, dose: 200.0 mg/kg/injection, schedule: Q01DX009 (ip), vehicle: saline with Tween-80 119 % of control

CCCCC=CC1CCCCC1 (mixture of isomers)
inactive: [8] 94 % of control | [10] 94 % of control | [11] 94 % of control

CCCCCC(C)(C)N=[P+]([O-])NC(C)(C)CCCCC (stereo unspecified)
inactive: endpoint: mean survival time, dose: 25.0 mg/kg/injection, schedule: Q04DX002 (ip), vehicle: saline with Tween-80 95 % of control | endpoint: mean survival time, dose: 50.0 mg/kg/injection, schedule: Q04DX002 (ip), vehicle: saline with Tween-80 102 % of control | endpoint: mean survival time, dose: 100.0 mg/kg/injection, schedule: Q04DX002 (ip), vehicle: saline with Tween-80 95 % of control and 98 % of control
